Measured values reported in patent US10259779B2 (WAYNE STATE UNIVERSITY, priority 2016, dated 2019).
Each block holds one compound with its values, some of them ahead of it.

Assays:
[1] = biological target: T1, HDAC6 (Homo sapiens, UniProt Q9UBN7); conditions: single concentration 1 μM; cited from earlier work
T1 sequence (Q9UBN7 1-1215): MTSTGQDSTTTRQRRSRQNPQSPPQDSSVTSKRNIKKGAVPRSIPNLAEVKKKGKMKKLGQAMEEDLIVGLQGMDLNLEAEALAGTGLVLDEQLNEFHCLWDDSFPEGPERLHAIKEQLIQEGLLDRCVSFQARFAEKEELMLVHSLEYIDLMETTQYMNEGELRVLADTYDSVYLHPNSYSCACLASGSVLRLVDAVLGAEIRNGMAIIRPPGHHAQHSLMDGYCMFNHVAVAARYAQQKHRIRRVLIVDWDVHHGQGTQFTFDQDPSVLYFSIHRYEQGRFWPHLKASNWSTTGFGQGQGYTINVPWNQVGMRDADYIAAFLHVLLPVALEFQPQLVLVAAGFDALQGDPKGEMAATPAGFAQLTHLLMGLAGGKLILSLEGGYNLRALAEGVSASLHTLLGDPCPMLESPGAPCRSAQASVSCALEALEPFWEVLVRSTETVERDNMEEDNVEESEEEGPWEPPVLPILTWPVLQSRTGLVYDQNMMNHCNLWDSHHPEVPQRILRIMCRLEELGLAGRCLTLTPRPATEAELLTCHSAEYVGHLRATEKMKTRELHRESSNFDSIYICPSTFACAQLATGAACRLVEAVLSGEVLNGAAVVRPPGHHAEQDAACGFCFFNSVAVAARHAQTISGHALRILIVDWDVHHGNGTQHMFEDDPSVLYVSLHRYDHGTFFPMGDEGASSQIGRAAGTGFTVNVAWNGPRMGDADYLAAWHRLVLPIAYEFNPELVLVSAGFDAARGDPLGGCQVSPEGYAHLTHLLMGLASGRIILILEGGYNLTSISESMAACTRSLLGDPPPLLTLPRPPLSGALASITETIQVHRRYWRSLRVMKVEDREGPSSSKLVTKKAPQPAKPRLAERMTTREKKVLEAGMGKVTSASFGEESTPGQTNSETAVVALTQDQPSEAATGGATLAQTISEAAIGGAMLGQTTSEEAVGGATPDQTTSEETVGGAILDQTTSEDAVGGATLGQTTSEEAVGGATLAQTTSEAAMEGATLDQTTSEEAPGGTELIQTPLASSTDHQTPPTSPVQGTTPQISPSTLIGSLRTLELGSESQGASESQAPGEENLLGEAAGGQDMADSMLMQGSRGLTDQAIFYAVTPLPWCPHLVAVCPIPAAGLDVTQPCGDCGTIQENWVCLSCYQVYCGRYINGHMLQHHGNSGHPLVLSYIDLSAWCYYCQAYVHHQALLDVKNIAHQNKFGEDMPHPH

[2] = system: acetyl-histone H3 (HDAC1, 2, 3 substrate) in U937 cells; assay: In cellulo selectivity testing, western blot of acetyl-histone H3; format: cell-based; conditions: 18 hours, SAHA 5 μM
[3] = system: acetyl-α-tubulin (HDAC6 substrate) in U937 cells; assay: In cellulo selectivity testing, western blot of acetyl-α-tubulin; format: cell-based; conditions: 18 hours, SAHA 5 μM, 1f 20-60 μM, compared to DMSO control
[4] = biological target: T2, HDAC1 (Homo sapiens, UniProt Q13547); conditions: single concentration 1 μM; cited from earlier work
[5] = in vitro; conditions: human, Jurkat cells (leukemia cell line)
[6] = biological target: T1, HDAC6; conditions: literature ref 55; cited from earlier work
[7] = biological target: T3, recombinant HDAC8 (Homo sapiens, UniProt Q9BY41); assay: Recombinant HDAC8 inhibition (HDAC-Glo); format: biochemical; conditions: read-out: Deacetylase activity (%) HDAC8
T3 construct: purchased BPS Bioscience
T3 sequence (Q9BY41 1-377): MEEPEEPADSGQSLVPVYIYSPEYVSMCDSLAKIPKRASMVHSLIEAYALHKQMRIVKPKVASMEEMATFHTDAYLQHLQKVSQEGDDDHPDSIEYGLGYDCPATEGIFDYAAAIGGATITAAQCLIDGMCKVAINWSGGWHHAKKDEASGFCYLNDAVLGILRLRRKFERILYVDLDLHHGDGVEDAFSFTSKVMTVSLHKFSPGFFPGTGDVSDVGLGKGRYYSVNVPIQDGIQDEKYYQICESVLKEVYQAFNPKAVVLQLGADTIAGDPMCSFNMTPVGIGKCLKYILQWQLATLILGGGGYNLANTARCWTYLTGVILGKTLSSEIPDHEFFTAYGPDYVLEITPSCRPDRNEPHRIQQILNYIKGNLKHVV
Procedure: Inhibitory activity with HDAC8 was measured using the following procedure. In a half area 96-well white opaque plate, recombinant HDAC8 (75 ng, BPS Bioscience) was incubated in HDAC-Glo™ buffer (39 μL) with inhibitor in DMSO (1 μL), or DMSO alone (1 μL) as a control, for 15 minutes at room temperature. HDAC-Glo™ reagent (10 μL) was added to each reaction and incubated for 30 min at room temperature. Luminescent signal was measured 30 minutes after adding the substrate reagent using a Geniosplus Fluorimeter (Tecan) at optimal gain. To determine IC50, the luminescent signal was first background corrected with the signal from a background control reaction where no HDAC8 enzyme was added.

[8] = biological target: T1, HDAC6; assay: ELISA-based HDAC activity assay, HDAC6; conditions: read-out: Deacetylase activity (%) HDAC6
[9] = system: HDAC proteins in HeLa cell lysates; assay: Global HDAC inhibition with HeLa cell lysates (HDAC-Glo I/II substrate); format: biochemical; conditions: Hela Lysate
Procedure: HDAC activity was measured using the commercially available HDAC-Glo™ I/II substrate (Promega).
Lysates were prepared according to the reported procedure.^28 HeLa-S3 cells (purchased from Biovest) were lysed in lysis buffer (1×10^9 cells in 10 mL lysis buffer; 50 mM Tris-HCl, pH 8.0, 10% glycerol, 150 mM NaCl, 0.5% Triton X-100, and 1× protease inhibitor cocktail (GenDEPOT)) with rotation at 4° C. for 30 min. Cell debris was removed by centrifugation at 12000 rpm at 4° C. for 30 min. Protein concentration of the supernatant was determined using Bio-Rad protein assay (BioRad, Bradford reagent). Lysates were stored at −80° C.
To measure global HDAC inhibition, HeLa cell lysates (1 μg total protein) were mixed with HDAC-Glo™ buffer in polystyrene 96-well half area white plate (Corning) to a final volume of 12 μL, followed by addition of inhibitors in DMSO (0.5 μL) and incubation for 15 min at room temperature without rocking. An uninhibited control reaction was also included that contained DMSO (0.5 μL). Finally, deacetylase activity was measured using the HDAC-Glo™ assay kit (Promega) as per the manufacturer's protocol. Specifically, the HDAC-Glo™ substrate (1 mL) and developer ([…]) were first premixed to form the HDAC-Glo™ reagents. Then, to monitor deacetylase activity, HDAC-Glo™ reagent (5 μL) and HDAC-Glo™ buffer (7.5 μL) were added to each well (25 μL total volume) and incubated for 35 min at room temperature without rocking. The deacetylase activity was measured as luminescent signal using a GeniosPlus Fluorimeter (Tecan) at optimal gain. The concentrations of inhibitors reported in the dose-dependent studies (Table 2) are final concentrations after addition of HDAC-Glo™ reagent HDAC-Glo™ buffer.

[10] = biological target: T2, HDAC1; assay: ELISA-based HDAC activity assay, HDAC1; conditions: read-out: Deacetylase activity (%) HDAC1
[11] = biological target: HDAC3 (Homo sapiens, UniProt O15379); assay: ELISA-based HDAC activity assay, HDAC3; conditions: read-out: Deacetylase activity (%) HDAC3
[12] = system: U937 cells; assay: In vitro cell growth inhibition, MTT assay, U937; format: cell-based; conditions: U937 cell line
[13] = biological target: HDAC2 (Homo sapiens, UniProt Q92769); assay: ELISA-based HDAC activity assay, HDAC2; conditions: read-out: Deacetylase activity (%) HDAC2
HDAC2, sequence (Q92769 whole entry): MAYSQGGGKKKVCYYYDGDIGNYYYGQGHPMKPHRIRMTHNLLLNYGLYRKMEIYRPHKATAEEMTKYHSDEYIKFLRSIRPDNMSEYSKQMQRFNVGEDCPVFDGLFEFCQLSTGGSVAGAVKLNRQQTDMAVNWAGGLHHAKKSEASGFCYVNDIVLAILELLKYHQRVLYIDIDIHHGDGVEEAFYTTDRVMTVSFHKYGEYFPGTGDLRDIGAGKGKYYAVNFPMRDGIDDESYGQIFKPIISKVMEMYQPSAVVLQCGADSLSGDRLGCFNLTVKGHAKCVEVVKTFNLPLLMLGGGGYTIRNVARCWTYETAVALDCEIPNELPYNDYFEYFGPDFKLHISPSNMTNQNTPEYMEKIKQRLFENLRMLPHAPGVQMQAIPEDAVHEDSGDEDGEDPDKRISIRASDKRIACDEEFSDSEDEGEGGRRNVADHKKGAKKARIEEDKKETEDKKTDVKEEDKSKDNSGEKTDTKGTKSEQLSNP

HDAC3, sequence (O15379 whole entry): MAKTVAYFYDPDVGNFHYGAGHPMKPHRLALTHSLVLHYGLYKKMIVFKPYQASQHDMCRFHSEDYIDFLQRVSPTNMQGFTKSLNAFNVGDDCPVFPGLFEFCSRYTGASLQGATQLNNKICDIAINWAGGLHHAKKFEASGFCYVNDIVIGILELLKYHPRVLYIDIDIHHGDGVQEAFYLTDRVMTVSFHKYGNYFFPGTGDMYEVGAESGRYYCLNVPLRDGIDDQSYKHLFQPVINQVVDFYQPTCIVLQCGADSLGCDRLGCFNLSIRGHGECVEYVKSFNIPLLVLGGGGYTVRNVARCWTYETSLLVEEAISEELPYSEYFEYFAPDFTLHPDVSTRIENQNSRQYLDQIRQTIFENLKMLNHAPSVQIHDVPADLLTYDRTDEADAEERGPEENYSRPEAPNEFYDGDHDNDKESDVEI
HDAC3, sequence (Q9Y618 whole entry partner): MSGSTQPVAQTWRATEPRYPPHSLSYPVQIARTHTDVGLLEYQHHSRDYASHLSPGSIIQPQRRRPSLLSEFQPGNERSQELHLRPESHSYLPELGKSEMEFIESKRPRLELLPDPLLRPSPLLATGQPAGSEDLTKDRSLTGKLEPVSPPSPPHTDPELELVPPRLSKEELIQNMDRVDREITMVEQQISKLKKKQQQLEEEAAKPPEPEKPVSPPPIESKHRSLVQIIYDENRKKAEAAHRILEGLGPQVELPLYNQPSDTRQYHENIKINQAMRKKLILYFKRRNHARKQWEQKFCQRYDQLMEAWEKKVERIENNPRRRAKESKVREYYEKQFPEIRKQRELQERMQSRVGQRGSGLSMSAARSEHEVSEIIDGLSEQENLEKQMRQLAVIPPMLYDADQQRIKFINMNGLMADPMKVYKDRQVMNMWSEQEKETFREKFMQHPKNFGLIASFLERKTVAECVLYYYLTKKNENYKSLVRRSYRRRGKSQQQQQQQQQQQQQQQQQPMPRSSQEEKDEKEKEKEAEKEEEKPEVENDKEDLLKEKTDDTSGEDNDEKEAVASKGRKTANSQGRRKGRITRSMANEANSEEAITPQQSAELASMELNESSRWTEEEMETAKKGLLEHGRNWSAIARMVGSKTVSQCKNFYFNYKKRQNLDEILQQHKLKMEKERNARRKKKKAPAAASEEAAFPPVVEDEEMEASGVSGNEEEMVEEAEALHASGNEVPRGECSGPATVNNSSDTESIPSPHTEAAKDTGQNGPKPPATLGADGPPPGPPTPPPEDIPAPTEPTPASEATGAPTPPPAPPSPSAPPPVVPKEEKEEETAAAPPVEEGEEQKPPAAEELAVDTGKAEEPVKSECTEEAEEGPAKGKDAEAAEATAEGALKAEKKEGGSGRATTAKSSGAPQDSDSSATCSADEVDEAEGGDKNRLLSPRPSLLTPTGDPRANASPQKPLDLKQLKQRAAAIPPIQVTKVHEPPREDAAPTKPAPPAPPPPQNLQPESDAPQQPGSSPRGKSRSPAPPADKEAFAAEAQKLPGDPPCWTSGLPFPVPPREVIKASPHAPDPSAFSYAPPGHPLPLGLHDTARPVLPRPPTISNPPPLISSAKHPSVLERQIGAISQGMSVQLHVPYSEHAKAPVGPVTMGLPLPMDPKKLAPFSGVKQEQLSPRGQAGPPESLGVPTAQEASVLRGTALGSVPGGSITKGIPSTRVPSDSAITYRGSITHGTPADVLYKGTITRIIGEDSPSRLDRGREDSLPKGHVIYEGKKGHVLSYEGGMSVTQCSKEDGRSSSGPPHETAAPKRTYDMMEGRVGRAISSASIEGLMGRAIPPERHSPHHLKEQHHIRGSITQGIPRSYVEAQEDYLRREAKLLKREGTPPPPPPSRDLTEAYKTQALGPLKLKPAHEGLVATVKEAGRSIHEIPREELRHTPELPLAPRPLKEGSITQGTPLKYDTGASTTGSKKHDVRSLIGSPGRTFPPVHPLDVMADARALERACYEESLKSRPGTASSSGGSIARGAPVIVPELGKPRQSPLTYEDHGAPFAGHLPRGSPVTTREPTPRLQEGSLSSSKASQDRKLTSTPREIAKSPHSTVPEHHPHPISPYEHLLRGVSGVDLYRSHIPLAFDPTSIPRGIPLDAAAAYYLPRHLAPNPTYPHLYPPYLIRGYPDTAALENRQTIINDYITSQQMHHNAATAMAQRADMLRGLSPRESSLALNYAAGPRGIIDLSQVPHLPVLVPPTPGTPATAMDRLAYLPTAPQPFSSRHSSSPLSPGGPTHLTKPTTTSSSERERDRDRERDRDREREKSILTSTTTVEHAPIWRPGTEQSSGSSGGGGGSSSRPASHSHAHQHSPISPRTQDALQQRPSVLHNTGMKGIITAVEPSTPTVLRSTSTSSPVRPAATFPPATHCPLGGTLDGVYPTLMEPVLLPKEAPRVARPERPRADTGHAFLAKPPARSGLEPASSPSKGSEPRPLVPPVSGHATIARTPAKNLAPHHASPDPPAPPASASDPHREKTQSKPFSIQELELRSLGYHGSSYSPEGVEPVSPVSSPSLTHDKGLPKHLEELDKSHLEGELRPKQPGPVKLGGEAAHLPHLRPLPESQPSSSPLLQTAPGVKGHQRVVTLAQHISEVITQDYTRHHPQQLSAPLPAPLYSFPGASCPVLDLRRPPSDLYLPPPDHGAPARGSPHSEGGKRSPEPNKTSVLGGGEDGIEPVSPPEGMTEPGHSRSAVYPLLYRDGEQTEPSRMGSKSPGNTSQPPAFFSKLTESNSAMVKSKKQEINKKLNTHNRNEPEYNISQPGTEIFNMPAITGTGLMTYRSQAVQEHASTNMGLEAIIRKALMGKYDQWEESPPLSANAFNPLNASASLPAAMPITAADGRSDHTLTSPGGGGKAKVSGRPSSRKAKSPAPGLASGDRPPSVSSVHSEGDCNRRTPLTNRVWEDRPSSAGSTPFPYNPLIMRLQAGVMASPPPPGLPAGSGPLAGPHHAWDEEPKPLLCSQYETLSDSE
T2 sequence (Q13547 whole entry): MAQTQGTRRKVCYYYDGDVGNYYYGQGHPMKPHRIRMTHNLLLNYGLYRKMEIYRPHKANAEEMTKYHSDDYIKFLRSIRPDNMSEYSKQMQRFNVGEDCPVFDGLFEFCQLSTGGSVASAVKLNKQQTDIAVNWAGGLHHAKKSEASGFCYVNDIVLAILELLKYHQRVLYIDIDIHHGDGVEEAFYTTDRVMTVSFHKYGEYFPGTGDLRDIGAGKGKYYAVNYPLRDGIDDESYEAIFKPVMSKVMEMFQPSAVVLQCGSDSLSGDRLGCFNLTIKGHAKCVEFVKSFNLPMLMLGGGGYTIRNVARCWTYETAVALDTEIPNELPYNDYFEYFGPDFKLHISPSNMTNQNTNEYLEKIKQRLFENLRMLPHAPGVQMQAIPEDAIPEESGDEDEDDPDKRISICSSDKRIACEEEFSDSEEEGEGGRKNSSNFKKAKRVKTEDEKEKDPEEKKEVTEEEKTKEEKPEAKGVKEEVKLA

Structure (SMILES): O=C(CCCCCCC(=O)Nc1ccccc1)NO [SAHA, suberoylamide hydroxamic acid]
- Deacetylase activity (%) HDAC6 [1]: 7.9 ± 1.6%
- levels of acetyl-histone H3 (AcH3), western blot [2]: increases levels
- levels of acetyl-α-tubulin (AcTub), western blot [3]: increases levels
- Deacetylase activity (%) HDAC1 [4]: 8.9 ± 0.1%
- viability at 44 h, 10 µM [5]: 5 ± 3%

Structure (SMILES): CCCC(CCC)C(=O)NO [Valpropylhydroxamic acid]
- fold selectivity for HDAC6 and 8 against HDAC1, 2, and 3 (reported) [6]: 9-17 fold

- activity at 0.1 µM ([7]; 1.0 × 10^−7 M): 41 ± 5%
- activity at 0.0125 µM ([7]; 1.25 × 10^−8 M): 84 ± 1%
- activity at 0.2 µM ([7]; 2.0 × 10^−7 M): 28 ± 4%
- activity at […] ([7]; 2.5 × 10^−8 M): 74 ± 3%
- activity at 0.05 µM ([7]; 5.0 × 10^−8 M): 61 ± 7%
- activity at 0.05 µM [8]: 61 ± 6%
- activity at 0.1 µM [8]: 46 ± 9%
- activity at 0.2 µM [8]: 39 ± 5%
- activity at 0.4 µM [8]: 23 ± 3%
- activity at […] [8]: 70 ± 6%
- activity at 3.5 µM [10]: 81 ± 1%
- activity at 7 µM [10]: 67 ± 2%
- activity at 14 µM [10]: 53 ± 3%
- activity at 28 µM [10]: 35 ± 1%
- activity at 56 µM [10]: 19 ± 1%
- activity at 3.5 µM [11]: 79 ± 3%
- activity at 7 µM [11]: 79 ± 3%
- activity at 14 µM [11]: 64 ± 2%
- activity at 28 µM [11]: 48 ± 5%
- activity at 56 µM [11]: 25 ± 5%
- EC50 [12]: 34 µM
- activity at 3.5 µM [13]: 81 ± 5%
- activity at 7 µM [13]: 71 ± 2%
- activity at 14 µM [13]: 57 ± 1%
- activity at 28 µM [13]: 43 ± 2%
- activity at 56 µM [13]: 18 ± 10%
- activity at […] [13]: 87 ± 1%
Structure (SMILES): CCCCC(CCCC(=O)Nc1ccccc1)CCC(=O)NO (racemic) [Compound 1c, 4-butyl-N^1-hydroxy-N^8-phenyloctanediamide]
- Deacetylase activity (%) ([9]; 3.0 × 10^−5 M): 69 ± 2%
- Deacetylase activity (%) ([9]; 6.0 × 10^−5 M): 44 ± 4%
- Deacetylase activity (%) ([9]; […] 10^−4 M): 24 ± 1%
- Deacetylase activity (%) ([9]; […] 10^−5 M): 88 ± 1%
- Deacetylase activity (%) ([9]; […] 10^−6 M): 97 ± 2%
- viability at 44 h, 1 µM [5]: 98 ± 6%
- viability at 44 h, 10 µM [5]: 62 ± 16%
